According to patent publication US12281363B2, “Methods for detecting antiviral-drug resistant virus” (Secretary of State for Health and Social Care, priority 2018, dated 2025):
Like-named read-outs stand apart in the source and are kept apart here.

Test system: HSV-1
Assay: Plaque reduction assay, HSV-1 clinical isolates on Vero cells
Format: cell-based
Settings: Human alphaherpesvirus 1, Vero
Text: Viral isolates were used to infect a sub-confluent monolayer of Vero cells at a concentration of 75 or 50 plaque forming units (PFU) per well for HSV-1 and HSV-2, respectively. […] CMC medium typically used to create a semisolid interface and prevents indiscrimate viral spreading. Other materials (e.g. agar) may also be used to create this interface.
Cells were fixed with 10% formalin and stained with crystal violet before enumeration of the plaques (microscopic observation or use of fluorescent antibodies for detection is also suitable). The data obtained from these experiments were then expressed as percent inhibition of viral infectivity relative to the no drug control.
Definitions of phenotypic drug susceptibility classification as sensitive or resistant were as follows: ACV, <3 μM or >40 μM; PCV, <10 μM or >40 μM; CDV, <24 μM or >30 μM; FOS, <250 μM or >400 μM; and ACV, <6.5 μM or >40 μM; PCV, <38 μM or >40 μM; FOS, <250 μM or >400 μM for HSV-1 and HSV-2, respectively. Any IC50 values falling in between these sensitive and resistant cut-offs were reported as intermediate resistance.
The phenotype (i.e. reactivity to a drug) of the virus was characterised by the plaque reduction assay as described above.

Nc1ccn(C[C@@H](CO)OCP(=O)(O)O)c(=O)n1 [Cidofovir, cidofovir]
IC50 (72 h, isolate HPG053, HSV-1 pol L802R + A834S (2405T>G, 2500G>T), also TK R176W, read-out: Drug susceptibility (IC50 value)): 7.72 µM | IC50 (isolate HPG002, HSV-1 pol E992K (2974G>A), also TK insert (G) nt 430-436, pol A1169T, read-out: Drug susceptibility (IC50 value)): 6.09 µM | IC50 (isolate HPG002, HSV-1 pol E992K (2974G>A), also TK insert (G) nt 430-436, pol A1169T, read-out: Drug susceptibility Cidofovir (CDV)): < 24 µM | IC50 (isolate HPG003, HSV-1 TK Y172S (515A>C), read-out: Drug susceptibility (IC50 value)): < 1.56 µM | IC50 (isolate HPG003, HSV-1 TK Y172S (515A>C), read-out: Drug susceptibility Cidofovir (CDV)): < 24 µM | IC50 (isolate HPG005, HSV-1 TK A37V (110C>T), read-out: Drug susceptibility (IC50 value)): 2.21 µM | IC50 (isolate HPG005, HSV-1 TK A37V (110C>T), read-out: Drug susceptibility Cidofovir (CDV)): < 24 µM | IC50 (isolate HPG008, HSV-1 TK V204G (611T>G), read-out: Drug susceptibility (IC50 value)): 3.56 µM | IC50 (isolate HPG008, HSV-1 TK V204G (611T>G), read-out: Drug susceptibility Cidofovir (CDV)): < 24 µM | IC50 (isolate HPG009, HSV-1 pol E992K (2974G>A), also pol A1169T, read-out: Drug susceptibility (IC50 value)): 9.44 µM | IC50 (isolate HPG009, HSV-1 pol E992K (2974G>A), also pol A1169T, read-out: Drug susceptibility Cidofovir (CDV)): < 24 µM | IC50 (isolate HPG010, HSV-1 TK Q125* (373C>T), read-out: Drug susceptibility (IC50 value)): < 1.56 µM | IC50 (isolate HPG010, HSV-1 TK Q125* (373C>T), read-out: Drug susceptibility Cidofovir (CDV)): < 24 µM | IC50 (isolate HPG011, HSV-1 TK Q125* (373C>T), read-out: Drug susceptibility (IC50 value)): < 1.56 µM | IC50 (isolate HPG011, HSV-1 TK Q125* (373C>T), read-out: Drug susceptibility Cidofovir (CDV)): < 24 µM | IC50 (isolate HPG013, HSV-1 TK M121I (363G>A), read-out: Drug susceptibility (IC50 value)): 3.11 µM | IC50 (isolate HPG013, HSV-1 TK M121I (363G>A), read-out: Drug susceptibility Cidofovir (CDV)): < 24 µM | IC50 (isolate HPG013, HSV-1 pol D83A (248A>C), also TK M121I, pol A1169T, read-out: Drug susceptibility (IC50 value)): 3.11 µM | IC50 (isolate HPG013, HSV-1 pol D83A (248A>C), also TK M121I, pol A1169T, read-out: Drug susceptibility Cidofovir (CDV)): < 24 µM | IC50 (isolate HPG014, HSV-1 pol A1115T (3343G>A), read-out: Drug susceptibility (IC50 value)): 17.2 µM | IC50 (isolate HPG014, HSV-1 pol A1115T (3343G>A), read-out: Drug susceptibility Cidofovir (CDV)): < 24 µM | IC50 (isolate HPG014, HSV-1 pol R993C (2977C>T), read-out: Drug susceptibility (IC50 value)): 17.2 µM | IC50 (isolate HPG014, HSV-1 pol R993C (2977C>T), read-out: Drug susceptibility Cidofovir (CDV)): < 24 µM | IC50 (isolate HPG014, HSV-1 pol T54A (160A>G), read-out: Drug susceptibility (IC50 value)): 17.2 µM | IC50 (isolate HPG014, HSV-1 pol T54A (160A>G), read-out: Drug susceptibility Cidofovir (CDV)): < 24 µM | IC50 (isolate HPG015, HSV-1 pol 966stop or F965_I966insF (2892_2893insT to 2895_2896insT), read-out: Drug susceptibility (IC50 value)): 45.1 µM | IC50 (isolate HPG015, HSV-1 pol 966stop or F965_I966insF (2892_2893insT to 2895_2896insT), read-out: Drug susceptibility Cidofovir (CDV)): > 30 µM | IC50 (isolate HPG018, HSV-1 TK frameshift (881delC to 885delC), read-out: Drug susceptibility (IC50 value)): 3.03 µM | IC50 (isolate HPG018, HSV-1 TK frameshift (881delC to 885delC), read-out: Drug susceptibility Cidofovir (CDV)): < 24 µM | IC50 (isolate HPG018, HSV-1 pol P1199T (3595C>A), also TK deletion (C) nt 881-885, pol A1169T, read-out: Drug susceptibility (IC50 value)): 3.03 µM | IC50 (isolate HPG018, HSV-1 pol P1199T (3595C>A), also TK deletion (C) nt 881-885, pol A1169T, read-out: Drug susceptibility Cidofovir (CDV)): < 24 µM | IC50 (isolate HPG019, HSV-1 pol K750T (2249A>C), also TK deletion (G) nt 430-436, pol A1169T, read-out: Drug susceptibility (IC50 value)): 20.4 µM | IC50 (isolate HPG019, HSV-1 pol K750T (2249A>C), also TK deletion (G) nt 430-436, pol A1169T, read-out: Drug susceptibility Cidofovir (CDV)): < 24 µM | IC50 (isolate HPG020, HSV-1 pol S911N (2732G>A), also pol A1169T, read-out: Drug susceptibility (IC50 value)): 4.38 µM | IC50 (isolate HPG020, HSV-1 pol S911N (2732G>A), also pol A1169T, read-out: Drug susceptibility Cidofovir (CDV)): < 24 µM | IC50 (isolate HPG021, HSV-1 pol R681Q (2042G>A), also TK deletion (G) nt 430-436, read-out: Drug susceptibility (IC50 value)): < 1.56 µM | IC50 (isolate HPG021, HSV-1 pol R681Q (2042G>A), also TK deletion (G) nt 430-436, read-out: Drug susceptibility Cidofovir (CDV)): < 24 µM | IC50 (isolate HPG021, HSV-1 pol T839A (2515A>G), also TK deletion (G) nt 430-436, read-out: Drug susceptibility (IC50 value)): < 1.56 µM | IC50 (isolate HPG021, HSV-1 pol T839A (2515A>G), also TK deletion (G) nt 430-436, read-out: Drug susceptibility Cidofovir (CDV)): < 24 µM | IC50 (isolate HPG025, HSV-1 pol E850Q (2548G>C), also TK R216C, read-out: Drug susceptibility (IC50 value)): < 1.56 µM | IC50 (isolate HPG025, HSV-1 pol E850Q (2548G>C), also TK R216C, read-out: Drug susceptibility Cidofovir (CDV)): < 24 µM | IC50 (isolate HPG026, HSV-1 pol E850Q (2548G>C), also TK R216C, pol A1169T, read-out: Drug susceptibility (IC50 value)): < 1.56 µM | IC50 (isolate HPG026, HSV-1 pol E850Q (2548G>C), also TK R216C, pol A1169T, read-out: Drug susceptibility Cidofovir (CDV)): < 24 µM | IC50 (isolate HPG027, HSV-1 TK V204G (611T>G), also pol S914L, A1169AT, read-out: Drug susceptibility (IC50 value)): 3.93 µM | IC50 (isolate HPG027, HSV-1 TK V204G (611T>G), also pol S914L, A1169AT, read-out: Drug susceptibility Cidofovir (CDV)): < 24 µM | IC50 (isolate HPG027, HSV-1 pol S914L (2741C>T), also TK V204G, pol A1169T, read-out: Drug susceptibility (IC50 value)): 3.93 µM | IC50 (isolate HPG027, HSV-1 pol S914L (2741C>T), also TK V204G, pol A1169T, read-out: Drug susceptibility Cidofovir (CDV)): < 24 µM | IC50 (isolate HPG029, HSV-1 TK Y172S (515A>C), read-out: Drug susceptibility (IC50 value)): 2.99 µM | IC50 (isolate HPG029, HSV-1 TK Y172S (515A>C), read-out: Drug susceptibility Cidofovir (CDV)): < 24 µM | IC50 (isolate HPG031, HSV-1 pol E1120A (3359A>C), also a TK resistance mutation (footnote e), read-out: Drug susceptibility (IC50 value)): 4.8 µM | IC50 (isolate HPG031, HSV-1 pol E1120A (3359A>C), also a TK resistance mutation (footnote e), read-out: Drug susceptibility Cidofovir (CDV)): < 24 µM | IC50 (isolate HPG031, HSV-1 pol G139R (415G>C or 415G>A), also a TK resistance mutation (footnote e), read-out: Drug susceptibility (IC50 value)): 4.8 µM | IC50 (isolate HPG031, HSV-1 pol G139R (415G>C or 415G>A), also a TK resistance mutation (footnote e), read-out: Drug susceptibility Cidofovir (CDV)): < 24 µM | IC50 (isolate HPG032, HSV-1 TK 183* (437_438insA), read-out: Drug susceptibility (IC50 value)): 3.61 µM
